Laboratory results from paper PMC7917842, “Chlortetracycline, a Novel Arf Inhibitor That Decreases the Arf6-Dependent Invasive Properties of Breast Cancer Cells” (Molecules, 2021).
pIC50: −log10 of the molar value.

Key:
Arf6 = target: T1, Arf6 (Homo sapiens, UniProt P62330); assay: mant-GTP loading (FRET) on purified Arf6 with EFA6A and azolectin liposomes; also […]GTPγS binding and tryptophan fluorescence; assay type: biochemical
T1 construct: full-length Arf6, C-terminal hexa-his tag (non myristoylated); also myristoylated Arf6; with EFA6A (exchange factor in the IC50 assay)
T1 sequence (Q8NDX1 whole entry): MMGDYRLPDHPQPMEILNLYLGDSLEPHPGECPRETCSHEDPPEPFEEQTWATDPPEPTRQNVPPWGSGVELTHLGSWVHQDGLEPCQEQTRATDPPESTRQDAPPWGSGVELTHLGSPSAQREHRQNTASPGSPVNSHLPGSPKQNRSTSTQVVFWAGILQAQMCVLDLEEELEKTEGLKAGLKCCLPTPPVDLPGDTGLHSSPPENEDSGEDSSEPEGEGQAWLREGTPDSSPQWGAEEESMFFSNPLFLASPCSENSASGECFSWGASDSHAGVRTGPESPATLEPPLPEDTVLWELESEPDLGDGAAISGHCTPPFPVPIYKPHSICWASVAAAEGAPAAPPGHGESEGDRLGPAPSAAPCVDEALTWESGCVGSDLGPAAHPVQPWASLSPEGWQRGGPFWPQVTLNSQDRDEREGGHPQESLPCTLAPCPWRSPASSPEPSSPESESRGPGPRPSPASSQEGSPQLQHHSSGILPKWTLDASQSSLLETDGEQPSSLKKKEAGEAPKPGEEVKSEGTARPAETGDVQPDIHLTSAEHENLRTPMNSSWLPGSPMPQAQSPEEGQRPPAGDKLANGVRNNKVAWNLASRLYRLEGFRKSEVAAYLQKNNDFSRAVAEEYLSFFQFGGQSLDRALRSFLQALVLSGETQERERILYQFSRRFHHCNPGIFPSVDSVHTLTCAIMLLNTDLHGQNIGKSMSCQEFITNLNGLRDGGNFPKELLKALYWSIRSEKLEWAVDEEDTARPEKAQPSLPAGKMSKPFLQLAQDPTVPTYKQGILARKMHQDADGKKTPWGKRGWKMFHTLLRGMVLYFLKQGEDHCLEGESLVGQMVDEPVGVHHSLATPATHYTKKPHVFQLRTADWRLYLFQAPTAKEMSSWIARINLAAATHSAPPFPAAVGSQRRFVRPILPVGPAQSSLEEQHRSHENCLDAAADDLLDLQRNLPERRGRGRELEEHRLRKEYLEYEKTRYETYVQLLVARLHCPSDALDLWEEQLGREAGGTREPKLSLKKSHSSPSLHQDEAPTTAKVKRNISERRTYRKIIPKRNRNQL
T1 sequence (P62330 2-175): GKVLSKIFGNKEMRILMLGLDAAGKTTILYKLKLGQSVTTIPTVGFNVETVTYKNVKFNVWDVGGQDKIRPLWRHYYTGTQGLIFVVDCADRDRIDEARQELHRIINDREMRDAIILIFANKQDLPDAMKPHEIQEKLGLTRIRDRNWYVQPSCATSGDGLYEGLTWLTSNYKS

Arf1 = target: T2, Arf1 (Homo sapiens, UniProt P84077); assay: spontaneous mant-GTP loading on purified myrArf1 with azolectin, […] CTC; also ARNO-catalysed exchange; assay type: biochemical
T2 construct: recombinant myristoylated Arf1 (myrArf1)
T2 sequence (P84077 2-181): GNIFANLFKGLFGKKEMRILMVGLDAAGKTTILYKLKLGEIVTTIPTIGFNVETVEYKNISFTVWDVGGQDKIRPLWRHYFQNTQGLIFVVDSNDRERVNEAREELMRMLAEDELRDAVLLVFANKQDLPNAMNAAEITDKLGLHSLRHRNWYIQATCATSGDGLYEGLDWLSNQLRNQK

In the case of `CN(C)[C@@H]1C(O)=C(C(N)=O)C(=O)[C@@]2(O)C(O)=C3C(=O)c4c(O)ccc(Cl)c4[C@@](C)(O)[C@H]3C[C@@H]12` [CTC, chlortetracycline], the pIC50 (Arf6) was 4.12 and the “spontaneous mant-GTP loading on purified myrArf1 with azolectin, 100 μM CTC; als” value (Arf1) was “CTC was able to strongly inhibit the spontaneous activation on the myristoylated forms of Arf6 (myrArf6) and Arf1 (myrArf1)”.
